Reference: patent US20220330549A1, “USE OF N-BENZYLBENZAMIDE-BASED COMPOUND AS HERBICIDE” (Northwest A&F University, priority 2020, published 2022)

Columns and labels:
Type in all cases: in vivo
[1] = system: Humulus scandens; test: Herbicidal activity test for indoor pre-emergence soil treatment; details: 150 g a.i./ha, visual inspection 21 days after treatment
Description: (§1) The herbicidal activity test for indoor pre-emergence soil treatment was performed with some of the N-benzylbenzamide-based compounds of general formula I or II with reference to the method of NY/T 1155.3-2006. Neutral sandy loam soil having an organic content of ≤2% was added to fill ⅘ of the pot, and the soil was completely moistened by infiltrating irrigation from the bottom of the pot. The seeds of the test weed were evenly spread on the soil surface, and then covered by 0.5 cm to 2.0 cm of soil depending on the seed size. Representative compounds in the examples were used to prepare emulsifiable concentrates (10%), and spray treatments to the soil were performed 24 hours after the sowing with the test agents diluted with water, at a spraying dosage of 150 g(a.i.)/ha. Then, the results were investigated by visual inspection 21 days after the treatments. The herbicidal activity of the agent was evaluated on a scale of 1-9 levels according to the symptoms and severity of damage to the test weeds.
(§2) Level 2: equivalent to 0 to 2.5% of the weed in the blank control area;
(§3) Level 3: equivalent to 2.6 to 5% of the weed in the blank control area;
(§4) Level 4: equivalent to 5.1 to 10% of the weed in the blank control area;
(§5) Level 5: equivalent to 10.1 to 15% of the weed in the blank control area;
(§6) Level 6: equivalent to 15.1 to 25% of the weed in the blank control area;
(§7) Level 7: equivalent to 25.1 to 35% of the weed in the blank control area;
(§8) Level 8: equivalent to 35.1 to 67.5% of the weed in the blank control area; and
(§9) Level 9: equivalent to 67.6 to 100% of the weed in the blank control area.

[2] = system: Amaranthus retroflexus; test: Field test for weed control in a corn field; details: 150 g a.i./ha, 30 days after treatment
Description: (§10) The weed control efficacy field test was performed in a corn field with some of the N-benzylbenzamide-based compounds of general formula I or II with reference to the method of GB/T 17980.42-2000. […] Spray treatments were performed in the stage where 2 leaves to 5 leaves were grown for the corns after the sowing. Representative compounds in the examples were used to prepare emulsifiable concentrates (10%), and spray treatments were performed with the concentrates in water at a dosage of 150 g(a.i.)/ha, and repeated 4 times for each treatment, and the area was 20 m^2. Oil dispersion with 25% of mesotrione was used as a control agent and applied at a dosage of 150 g(a.i.)/h. […] The herbicidal activities of the agents were evaluated on a scale of 1-9 levels according to the symptoms and severity of damage to the test weeds.
as §2, §3, §4, §5, §6, §7, §8, §9

[3] = system: Convolvulus arvensis; test: Field test for weed control in a corn field; details: 150 g a.i./ha, after treatment
Description: as §10, §2, §3, §4, §5, §6, §7, §8, §9

[4] = system: Solanum nigrum; test: Field test for weed control in a corn field; details: 150 g a.i./ha, 30 days after treatment
Description: as §10, §2, §3, §4, §5, §6, §7, §8, §9

[5] = system: Acalypha australis; test: Field test for weed control in a corn field; details: 150 g a.i./ha, after treatment
Description: as §10, §2, §3, §4, §5, §6, §7, §8, §9

[6] = system: goosegrass; test: Field test for weed control in a corn field; details: 150 g a.i./ha, after treatment
Description: as §10, §2, §3, §4, §5, §6, §7, §8, §9

[7] = system: Barnyard grass; test: Field test for weed control in a corn field; details: 150 g a.i./ha, 30 days after treatment
Description: as §10, §2, §3, §4, §5, §6, §7, §8, §9

[8] = system: Digitaria sanguinalis; test: Field test for weed control in a corn field; details: 150 g a.i./ha, after treatment
Description: as §10, §2, §3, §4, §5, §6, §7, §8, §9

[9] = system: Portulaca oleracea; test: Field test for weed control in a corn field; details: 150 g a.i./ha, after treatment
Description: as §10, §2, §3, §4, §5, §6, §7, §8, §9

[10] = system: Chenopodium album; test: Field test for weed control in a corn field; details: 150 g a.i./ha, after treatment
Description: as §10, §2, §3, §4, §5, §6, §7, §8, §9

[11] = system: nutgrass flatsedge; test: Field test for weed control in a corn field; details: 150 g a.i./ha, after treatment
Description: as §10, §2, §3, §4, §5, §6, §7, §8, §9

[12] = system: green bristlegrass; test: Field test for weed control in a corn field; details: 150 g a.i./ha, after treatment
Description: as §10, §2, §3, §4, §5, §6, §7, §8, §9

[13] = system: Piemarker; test: Herbicidal activity test for indoor pre-emergence soil treatment; design: key: level 1-9; higher = more weed remaining vs blank control; details: 150 g a.i./ha, visual inspection 21 days after treatment
Description: as §1, §2, §3, §4, §5, §6, §7, §8, §9

[14] = system: Barnyard grass; test: as above; design: key: level 1-9; higher = more weed remaining vs blank control; details: 150 g a.i./ha, visual inspection 21 days after treatment
Description: as §1, §2, §3, §4, §5, §6, §7, §8, §9

[15] = system: green bristlegrass; test: as above; design: key: level 1-9; higher = more weed remaining vs blank control; details: 150 g a.i./ha, visual inspection 21 days after treatment
Description: as §1, §2, §3, §4, §5, §6, §7, §8, §9

[16] = system: Amaranthus retroflexus; test: Herbicidal activity test for indoor post-emergence spraying on stems and leaves; design: key: grade level by weed remaining vs blank control, e.g. 5 = 10.1-15%; details: 150 g a.i./ha, visual inspection 21 days after treatment
Description: (§11) The post-emergence herbicidal activity test was performed with some of the N-benzylbenzamide-based compounds of general formula I or II with reference to the method of NY/T 1155.4-2006. […] After the sowing, the weed was moved to a greenhouse for regular cultivation. […] Then, the results were investigated by visual inspection 21 days after the treatments. […] Level 5: equivalent to 10.1 to 15% of the weed in the blank control area; Level 6: equivalent to 15.1 to 25% of the weed in the blank control area; Level 7: equivalent to 25.1 to 35% of the weed in the blank control area; Level 8: equivalent to 35.1 to 67.5% of the weed in the blank control area; and […]

[17] = system: Piemarker; test: as above; design: key: grade level by weed remaining vs blank control, e.g. 5 = 10.1-15%; details: 150 g a.i./ha, visual inspection 21 days after treatment
Description: as §11

[18] = system: Barnyard grass; test: as above; design: key: grade level by weed remaining vs blank control, e.g. 5 = 10.1-15%; details: 150 g a.i./ha, visual inspection 21 days after treatment
Description: as §11

[19] = system: Digitaria sanguinalis; test: as above; design: key: grade level by weed remaining vs blank control, e.g. 5 = 10.1-15%; details: 150 g a.i./ha, visual inspection 21 days after treatment
Description: as §11

[20] = system: Humulus scandens; test: as above; design: key: grade level by weed remaining vs blank control, e.g. 5 = 10.1-15%; details: 150 g a.i./ha, visual inspection 21 days after treatment
Description: as §11

[21] = system: green bristlegrass; test: as above; design: key: grade level by weed remaining vs blank control, e.g. 5 = 10.1-15%; details: 150 g a.i./ha, visual inspection 21 days after treatment
Description: as §11

[22] = system: Amaranthus retroflexus; test: Herbicidal activity test for indoor pre-emergence soil treatment; design: key: 1-9 levels; higher = more weed remaining vs blank control; details: 150 g a.i./ha, visual inspection 21 days after treatment
Description: as §1, §2, §3, §4, §5, §6, §7, §8, §9

[23] = system: Digitaria sanguinalis; test: as above; design: key: 1-9 levels; higher = more weed remaining vs blank control; details: 150 g a.i./ha, visual inspection 21 days after treatment
Description: as §1, §2, §3, §4, §5, §6, §7, §8, §9

[24] = system: Cyperaceae; test: Post-emergence herbicidal activity test in a paddy field; design: key: level scale; higher level = more weed left vs blank control; details: 150 g a.i./ha (penoxsulam control 250 g(a.i.)/h)
Description: (§12) The post-emergence herbicidal activity test was performed in a paddy field with some of the N-benzylbenzamide-based compounds of general formula I or II with reference to the method of GB/T 17980.40-2000. […] Spray treatments were performed in the stage where 4 leaves to 5 leaves were grown for the rice seedlings which was about 1 month after the sowing. Representative compounds in the examples were used to prepare emulsifiable concentrates (10%), and spray treatments were performed with the concentrates in water at a dosage of 150 g(a.i.)/ha, and repeated 4 times for each treatment, and the area was 50 m^2. 25 g/L of penoxsulam suspension was used as a control agent and applied at a dosage of 250 g(a.i.)/h. The results were investigated by a value estimating survey method 15 days and 30 days after the treatments. The relative weed population quantities were estimated by comparing each agent treated area with an adjacent blank control area, and the results of which were investigated with the following grading standard method using the overall coverage of the weed population as an indicator.
as §2, §3, §4, §5, §6, §7, §8, §9

[25] = system: Broadleaf weed; test: as above; design: key: level scale; higher level = more weed left vs blank control; details: 150 g a.i./ha (penoxsulam control 250 g(a.i.)/h)
Description: as §12, §2, §3, §4, §5, §6, §7, §8, §9

[26] = system: Gramineae; test: as above; design: key: level scale; higher level = more weed left vs blank control; details: 150 g a.i./ha (penoxsulam control 250 g(a.i.)/h)
Description: as §12, §2, §3, §4, §5, §6, §7, §8, §9

Structure (SMILES) | Herbicidal Activity Humulus scandens [1] | Post-emergence weed control effect, Amaranthus retroflexus [2] | Post-emergence weed control effect, Convolvulus arvensis [3] | Post-emergence weed control effect, Solanum nigrum [4] | Post-emergence weed control effect, Acalypha australis [5] | Post-emergence weed control effect, Goose grass [6] | Post-emergence weed control effect, Barnyard grass [7] | Post-emergence weed control effect, Digitaria sanguinalis [8] | Post-emergence weed control effect, Portulaca oleracea [9] | Post-emergence weed control effect, Chenopodium album [10] | Post-emergence weed control effect, Nutgrass flatsedge [11] | Post-emergence weed control effect, Green bristlegrass [12] | Herbicidal Activity Piemarker [13] | Herbicidal Activity Barnyard grass [14] | Herbicidal Activity Green bristlegrass [15] | Herbicidal Activity Amaranthus retroflexus [16] | Herbicidal Activity Piemarker [17] | Herbicidal Activity Barnyard grass [18] | Herbicidal Activity Digitaria sanguinalis [19] | Herbicidal Activity Humulus scandens [20] | further results
COc1ccc(OC)c(C(=O)NCc2cc(F)cc(F)c2)c1 [Compound A24] | 1 | 1 | 1 | 2 (equivalent to 0 to 2.5% of the weed in the blank control area) | 3 (equivalent to 2.6 to 5% of the weed in the blank control area) | 2 (equivalent to 0 to 2.5% of the weed in the blank control area) | 1 | 2 (equivalent to 0 to 2.5% of the weed in the blank control area) | 1 | 1 | 3 (equivalent to 2.6 to 5% of the weed in the blank control area) | 1 | 1 | 1 | 1 | 1 | 1 | 1 | 1 | 1 | Herbicidal Activity Green bristlegrass [21]: 1; Herbicidal Activity Amaranthus retroflexus [22]: 1; Herbicidal Activity Digitaria sanguinalis [23]: 1; Herbicidal activity 15 days after treatment Cyperaceae [24]: 1; Herbicidal activity 30 days after treatment Cyperaceae [24]: 1; Herbicidal activity 15 days after treatment Broadleaf weed [25]: 1; Herbicidal activity 30 days after treatment Broadleaf weed [25]: 1; Herbicidal activity 15 days after treatment Gramineae [26]: 1; Herbicidal activity 30 days after treatment Gramineae [26]: 1
Cc1cccc(C(=O)NCc2cc(F)cc(Cl)c2)c1 [Compound B07] | 3 (equivalent to 2.6 to 5% of the weed in the blank control area) | 1 | 1 | 2 (equivalent to 0 to 2.5% of the weed in the blank control area) | 2 (equivalent to 0 to 2.5% of the weed in the blank control area) | 2 (equivalent to 0 to 2.5% of the weed in the blank control area) | 1 | 2 (equivalent to 0 to 2.5% of the weed in the blank control area) | 1 | 1 | 2 (equivalent to 0 to 2.5% of the weed in the blank control area) | 2 (equivalent to 0 to 2.5% of the weed in the blank control area) | 1 | 1 | 1 | 1 | 1 | 1 | 1 | 1 | Herbicidal Activity Green bristlegrass [21]: 1; Herbicidal Activity Amaranthus retroflexus [22]: 2 (equivalent to 0 to 2.5% of the weed in the blank control area); Herbicidal Activity Digitaria sanguinalis [23]: 1; Herbicidal activity 15 days after treatment Cyperaceae [24]: 1; Herbicidal activity 30 days after treatment Cyperaceae [24]: 1; Herbicidal activity 15 days after treatment Broadleaf weed [25]: 1; Herbicidal activity 30 days after treatment Broadleaf weed [25]: 1; Herbicidal activity 15 days after treatment Gramineae [26]: 2 (equivalent to 0 to 2.5% of the weed in the blank control area); Herbicidal activity 30 days after treatment Gramineae [26]: 2 (equivalent to 0 to 2.5% of the weed in the blank control area)
